Results from patent publication US20260022116A1, “IMIDAZOPYRIDINE COMPOUNDS, PREPARATION THEREOF AND THERAPEUTIC USES THEREOF” (SANOFI, priority 2022, published 2026).
Read-outs that look alike come from different tables or passages of the source.

Experiments:
ERK5 [1] = target: T1, ERK5 (Homo sapiens, UniProt Q13164); assay: cell-based
Target sequence in this assay (Q13164 whole entry): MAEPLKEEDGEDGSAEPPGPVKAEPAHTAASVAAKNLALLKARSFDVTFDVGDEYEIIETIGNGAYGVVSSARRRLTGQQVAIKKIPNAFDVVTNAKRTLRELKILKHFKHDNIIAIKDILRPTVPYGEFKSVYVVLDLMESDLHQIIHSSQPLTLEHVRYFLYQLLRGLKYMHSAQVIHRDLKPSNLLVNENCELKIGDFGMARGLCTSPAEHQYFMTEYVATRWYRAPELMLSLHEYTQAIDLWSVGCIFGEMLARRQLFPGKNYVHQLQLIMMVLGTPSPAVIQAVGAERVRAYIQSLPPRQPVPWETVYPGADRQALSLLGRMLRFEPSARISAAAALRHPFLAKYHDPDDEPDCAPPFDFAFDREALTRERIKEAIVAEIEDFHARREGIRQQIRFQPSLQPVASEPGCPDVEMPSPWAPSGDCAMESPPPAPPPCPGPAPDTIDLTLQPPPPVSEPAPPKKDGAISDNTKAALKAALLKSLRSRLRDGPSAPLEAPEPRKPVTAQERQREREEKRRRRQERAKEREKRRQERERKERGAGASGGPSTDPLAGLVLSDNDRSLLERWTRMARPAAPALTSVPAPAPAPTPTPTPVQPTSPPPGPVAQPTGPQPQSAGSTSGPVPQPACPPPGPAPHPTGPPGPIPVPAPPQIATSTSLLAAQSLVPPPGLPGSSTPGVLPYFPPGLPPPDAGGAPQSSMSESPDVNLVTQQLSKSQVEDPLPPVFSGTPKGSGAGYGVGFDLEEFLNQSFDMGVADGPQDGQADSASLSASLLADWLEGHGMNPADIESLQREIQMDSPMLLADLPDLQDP
Method: (§1) Two assays were performed to assess the ERK5 inhibitory activity of compounds of the Examples, a cell-based assay and a cell-free biochemical assay.
(§2) The renal cancer cell line SN12C was transduced by a lentivirus pGreenFire1 MEF2 EF1 Neo (ref TR030VA-N) from SBI using standard infection protocol. pGreenFire1 MEF2 EF1 Neo allows the expression of luciferase gene under the control of minimal promoter with MEF2 transcriptional response elements. Cells harboring the reporter construct were selected by geneticin treatment. The selected cells were then transposed by a piggyback based plasmid pCM4007 allowing the expression of constitutively activated MEK5DD under control of TREG3 promoter, a doxycycline regulated promoter. Transposed cells were selected by puromycin treatment. Upon doxycycline treatment (1 μg/ml) MEK5DD was expressed. MEK5DD activates ERK5 that phosphorylates MEF2C protein. Activated MEF2C protein can bind to its transcriptional response elements. Then the luciferase is expressed. In a 96-well plate (96F nuncleon ref137101 thermofisher), 50,000 cells were inoculated in 142.5 μl of RPMI medium containing 10% fetal calf serum, 1% glutamine, and 1 μg/ml doxycycline. […] The luciferase activity was measured using the Kit Bright Glo Luminescent Cell Assay Cat E2610 (Promega) according to the manufacturer's protocol. Luminescence was determined using 0.2 second reading/well using a Tecan SPARK. IC50 values were calculated using XLFIT5 for Microsoft Excel using method 205.

ERK5 [2] = target: T1, ERK5
Target sequence in this assay (Q13164 55-347 limits assumed): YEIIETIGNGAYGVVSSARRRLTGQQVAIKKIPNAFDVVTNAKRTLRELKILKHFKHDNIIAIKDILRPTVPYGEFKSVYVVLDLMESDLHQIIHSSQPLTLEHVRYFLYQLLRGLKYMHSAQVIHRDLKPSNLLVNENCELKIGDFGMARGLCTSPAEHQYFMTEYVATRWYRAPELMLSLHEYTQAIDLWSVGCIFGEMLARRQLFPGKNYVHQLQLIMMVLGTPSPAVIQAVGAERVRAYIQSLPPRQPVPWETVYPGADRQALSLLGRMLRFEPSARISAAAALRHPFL
Method: as §1
(§3) An assay was performed to measure the capacity of each compound to inhibit ERK5 enzymatic activity. Compound potency was evaluated by Time-Resolved Forster Resonance Energy Transfer (FRET system). […] A mixture of 1 mM ATP and 1 μM biotinylated synthetic peptide was added (Biosyntan GmbH). This synthetic peptide represents amino acids 30-52 of Eukaryotic translation initiation factor 4E-binding protein 1 (see, e.g., the sequence under accession No. NP_004086.1) biotinylated at the N-terminus.

ERK5 [3] = target: T1, ERK5; assay: biochemical
Target sequence in this assay (Q13164 55-347 limits assumed): as above
Method: as §1, §3

ERK5 [4] = target: T1, ERK5; remark: listed apart in the source
Target sequence in this assay (Q13164 whole entry): as the sequence (Q13164 whole entry) above
Method: as §1, §2

IC50 (ERK5 [1])	IC50 (ERK5 [2])	IC50 (ERK5 [3])	SMILES	IC50 (ERK5 [4])
179 nM	148 nM		CN1CCC(c2nc3c(C4CCN(C(=O)c5ccc(OC(F)(F)F)cc5)CC4)ccnc3[nH]2)C1 (single isomer, unassigned) [Example 25, [4-[2-(1-Methylpyrrolidin-3-yl)-3H-imidazo[4,5-b]pyridin-7-yl]-1-piperidyl]-[4-(trifluoromethoxy)phenyl]methanone]	
97 nM		95 nM	COC12CC(c3nc4c(C5CCN(C(=O)c6ccc(S(F)(F)(F)(F)F)cc6)CC5)ccnc4[nH]3)(C1)C2 [Example 302, [4-[2-(3-methoxy-1-bicyclo[1.1.1]pentanyl)-3H-imidazo[4,5-b]pyridin-7-yl]-1-piperidyl]-[4-(pentafluoro-λ^6-sulfanyl)phenyl]methanone]	
150 nM		148 nM	CN1CCC(c2nc3c(C4CCN(C(=O)c5ccc(OC(F)(F)F)cc5)CC4)ccnc3[nH]2)C1 (single isomer, unassigned) [Example 24, [4-[2-(1-Methylpyrrolidin-3-yl)-3H-imidazo[4,5-b]pyridin-7-yl]-1-piperidyl]-[4-(trifluoromethoxy)phenyl]methanone]	
47 nM		47 nM	Nc1cc(OC(F)(F)F)ccc1C(=O)N1CCC(c2ccnc3[nH]c(C4CCN(CC(F)F)CC4)nc23)CC1 [Example 37, [2-Amino-4-(trifluoromethoxy)phenyl]-[4-[2-[1-(2,2-difluoroethyl)-4-piperidyl]-3H-imidazo[4,5-b]pyridin-7-yl]-1-piperidyl]methanone]	
13 nM		13 nM	COC12CC(c3nc4c(C5CCN(C(=O)c6ccc(OC(F)(F)F)cc6N)CC5)ccnc4[nH]3)(C1)C2 [Example 150, [2-amino-4-(trifluoromethoxy)phenyl]-[4-[2-(3-methoxy-1-bicyclo[1.1.1]pentanyl)-3H-imidazo[4,5-b]pyridin-7-yl]-1-piperidyl]methanone]	
87 nM		83 nM	Nc1cc(OC(F)(F)F)ccc1C(=O)N1CCC(c2ccnc3[nH]c(C4CNCCO4)nc23)CC1 (single isomer, unassigned) [Example 96, [2-amino-4-(trifluoromethoxy)phenyl]-[4-[2-[morpholin-2-yl]-3H-imidazo[4,5-b]pyridin-7-yl]-1-piperidyl]methanone]	
> 10000 nM		25200 nM	O=C(C1CC1c1cccc(O)c1)N1CCC(c2ccnc3[nH]c(C4CCOCC4)nc23)CC1 (stereo not drawn) [Example 86, [2-(3-hydroxyphenyl)cyclopropyl]-[4-(2-tetrahydropyran-4-yl-3H-imidazo[4,5-b]pyridin-7-yl)-1-piperidyl]methanone]	

SMILES	IC50 (ERK5 [1])	IC50 (ERK5 [2])	IC50 (ERK5 [3])	IC50 (ERK5 [4])
COC12CC(c3nc4c(C5CCN(C(=O)c6ccc(OC(F)(F)F)cc6)CC5)c(F)cnc4[nH]3)(C1)C2 [Example 426, [4-[6-fluoro-2-(3-methoxy-1-bicyclo[1.1.1]pentanyl)-3H-imidazo[4,5-b]pyridin-7-yl]-1-piperidyl]-[4-(trifluoromethoxy)phenyl]methanone]			69 nM	10 nM
COC12CC(c3nc4c(C5CCN(C(=O)c6ccc(OC(F)(F)F)cc6N)CC5)c(F)cnc4[nH]3)(C1)C2 [Example 428, [2-amino-4-(trifluoromethoxy)phenyl]-[4-[6-fluoro-2-(3-methoxy-1-bicyclo[1.1.1]pentanyl)-3H-imidazo[4,5-b]pyridin-7-yl]-1-piperidyl]methanone]			28 nM	5 nM
